PubChem BioAssay AID1963869 (Molecular Pharmacology Branch, DTP, NCI, 2024)

System: KRAS patient-derived spheroids with HUVEC/MSC, viability
Assay: Anticancer human tumor 323965-272-R-J2-PDC patient-derived pancreatic carcinoma cell line growth inhibition [KRAS2]
Conditions: for IC50: curve of first compound; for viability, T/C: stronger effect = lower value
Outline: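 Combination screen of spheroid viability in tumor-cell co-cultures with endothelial (HUVEC) and mesenchymal stem cell stroma. Each agent was tested in half-log dilutions, topping at clinical Cmax or at 10 microM without a known Cmax.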

[1] = second compound 0.1 µM, first compound 0.01 µM
[2] = second compound 0.1 µM, first compound 0.0316 µM
[3] = second compound 0.1 µM, first compound 0.1 µM
[4] = second compound 0.316 µM, first compound 0.01 µM
[5] = second compound 0.316 µM, first compound 0.0316 µM
[6] = second compound 0.316 µM, first compound 0.1 µM
[7] = second compound 1 µM, first compound 0.01 µM
[8] = second compound 1 µM, first compound 0.0316 µM
[9] = second compound 1 µM, first compound 0.1 µM
[10] = second compound 3.16 µM, first compound 0.01 µM
[11] = second compound 3.16 µM, first compound 0.0316 µM
[12] = second compound 3.16 µM, first compound 0.1 µM
[13] = second compound 10 µM, first compound 0.01 µM
[14] = second compound 10 µM, first compound 0.0316 µM
[15] = second compound 10 µM, first compound 0.1 µM
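Note: spheroids exposed to agents for 7 days.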
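Throughout, for viability, T/C: 100% = DMSO vehicle control viability.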

CC(=O)OC12COC1CC(O)C1(C)C(=O)C(O)C3=C(C)C(OC(=O)C(O)C(NC(=O)OC(C)(C)C)c4ccccc4)CC(O)(C(OC(=O)c4ccccc4)C21)C3(C)C (stereo not given) + CNCc1ccccc1-c1csc(C(C)Nc2nc(C)nc3cc(OC)c(OC)cc23)c1
IC50 (second compound 0.1 µM): < 0.01 µM
IC50 (second compound 0.316 µM): < 0.01 µM
IC50 (second compound 1 µM): < 0.01 µM
IC50 (second compound 3.16 µM): < 0.01 µM
IC50 (second compound 10 µM): < 0.01 µM
viability, T/C [1]: 29%
viability, T/C [2]: 25.5%
viability, T/C [3]: 24.1%
viability, T/C (second compound 0.1 µM, first compound 0.316 µM): 25.7%
viability, T/C (second compound 0.1 µM, first compound 1 µM): 26.5%
viability, T/C (second compound 0.1 µM, first compound 3.16 µM): 28.6%
viability, T/C [4]: 23.3%
viability, T/C [5]: 24.3%
viability, T/C [6]: 21.9%
viability, T/C (second compound 0.316 µM, first compound 0.316 µM): 21.8%
viability, T/C (second compound 0.316 µM, first compound 1 µM): 23%
viability, T/C (second compound 0.316 µM, first compound 3.16 µM): 25.7%
viability, T/C [7]: 27.5%
viability, T/C [8]: 25.7%
viability, T/C [9]: 28.4%
viability, T/C (second compound 1 µM, first compound 0.316 µM): 28.2%
viability, T/C (second compound 1 µM, first compound 1 µM): 32.7%
viability, T/C (second compound 1 µM, first compound 3.16 µM): 35.3%
viability, T/C [10]: 0.95%
viability, T/C [11]: 26.9%
viability, T/C [12]: 4.54%
viability, T/C (second compound 3.16 µM, first compound 0.316 µM): 0.8%
viability, T/C (second compound 3.16 µM, first compound 1 µM): 7.93%
viability, T/C (second compound 3.16 µM, first compound 3.16 µM): 30.4%
viability, T/C [13]: 0.72%
viability, T/C [14]: 0.14%
viability, T/C [15]: 0.36%
viability, T/C (second compound 10 µM, first compound 0.316 µM): 0.45%
viability, T/C (second compound 10 µM, first compound 1 µM): 0.41%
viability, T/C (second compound 10 µM, first compound 3.16 µM): 0.21%

CN(C)C/C=C/C(=O)Nc1cc2c(Nc3ccc(F)c(Cl)c3)ncnc2cc1O[C@H]1CCOC1 + CNCc1ccccc1-c1csc(C(C)Nc2nc(C)nc3cc(OC)c(OC)cc23)c1
IC50 (second compound 0.1 µM): > 0.1 µM
IC50 (second compound 0.316 µM): > 0.1 µM
IC50 (second compound 1 µM): > 0.1 µM
IC50 (second compound 3.16 µM): > 0.1 µM
IC50 (second compound 10 µM): < 0.000316 µM
viability, T/C (second compound 0.1 µM, first compound 0.000316 µM): 91.6%
viability, T/C (second compound 0.1 µM, first compound 0.001 µM): 80.5%
viability, T/C (second compound 0.1 µM, first compound 0.00316 µM): 94.3%
viability, T/C [1]: 70.6%
viability, T/C [2]: 59.6%
viability, T/C [3]: 62.7%
viability, T/C (second compound 0.316 µM, first compound 0.000316 µM): 83.8%
viability, T/C (second compound 0.316 µM, first compound 0.001 µM): 82.1%
viability, T/C (second compound 0.316 µM, first compound 0.00316 µM): 74.3%
viability, T/C [4]: 64.2%
viability, T/C [5]: 59.2%
viability, T/C [6]: 57.8%
viability, T/C (second compound 1 µM, first compound 0.000316 µM): 82.3%
viability, T/C (second compound 1 µM, first compound 0.001 µM): 81.4%
viability, T/C (second compound 1 µM, first compound 0.00316 µM): 75.2%
viability, T/C [7]: 60.6%
viability, T/C [8]: 63.3%
viability, T/C [9]: 65.1%
viability, T/C (second compound 3.16 µM, first compound 0.000316 µM): 73.8%
viability, T/C (second compound 3.16 µM, first compound 0.001 µM): 63.7%
viability, T/C (second compound 3.16 µM, first compound 0.00316 µM): 79.1%
viability, T/C [10]: 79.6%
viability, T/C [11]: 47.2%
viability, T/C [12]: 71.9%
viability, T/C (second compound 10 µM, first compound 0.000316 µM): 0.21%
viability, T/C (second compound 10 µM, first compound 0.001 µM): 0.21%
viability, T/C (second compound 10 µM, first compound 0.00316 µM): 1.04%
viability, T/C [13]: 0.21%
viability, T/C [14]: 0.2%
viability, T/C [15]: 0.78%
